Tests used:
Aspergillus spp. = test: Antifungal agent sensitivity test, MIC by trace liquid dilution method (yeast-like fungi FP 'Eiken'); format: cell-based; settings: numeric MIC (μg/mL) only in FIG. 2
Description: (§1) Minimum inhibitory concentration (MIC) was measured by the trace liquid dilution method. The measurement was performed using yeast-like fungi FP ‘Eiken’ (Eiken Chemical Co., Ltd.) and according to the manual of the product.

Candida spp. = test: as above; format: cell-based; settings: numeric MIC (μg/mL) only in FIG. 2
Description: as §1

Compound: CC=C(Cc1ccccc1)C12CC(O)CCN1O2 (centres unmarked)
- antifungal activity (MIC), result in words (Aspergillus spp.): good activity
- antifungal activity (MIC), result in words (Candida spp.): good activity

Reference: US9896457B2, “Microbial product having antifungal activity” (OP BIO FACTORY CO., LTD., priority 2013, dated 2018)
